The text below walks through data of patent US7384950B2, “Thienopyrimidinediones and their use in the modulation of autoimmune disease” (AstraZeneca AB, priority 2001, dated 2008).

SMILES strings stand for the structures.

The subject of the assay is PMA/ionomycin-stimulated peripheral blood mononuclear cell (PBMC). The assay can be described thus: Inhibition of PMA/ionomycin-stimulated peripheral blood mononuclear cell proliferation. The format is cell-based. The conditions noted are these: human PBMC from a single donor, 10% human serum, PMA 0.5 ng/ml and ionomycin 500 ng/ml, 72 hours, 3H-thymidine incorporation; read-out: IA50 (the source's name). As for the experimental part: The ability of compounds which can inhibit PMA/ionomycin-stimulated peripheral blood mononuclear cell proliferation can be assessed, for example using the procedure set out below:
Inhibition of PMA/ionomycin-stimulated Peripheral Blood Mononuclear Cell Proliferation
The assay for PMA/ionomycin-stimulated PBMC proliferation was performed in 96-well flat bottomed microtitre plates. Compounds were prepared as 10 mM stock solutions in dimethyl sulfoxide. A 50-fold dilution of this was prepared in RPMI and serial dilutions were prepared from this solution. 10 μl of the 50-fold diluted stock, or dilutions of it, were added to the well to give concentrations in the assay starting at 9.5 μM and going down. Into each well was placed 1×10^5 PBMC, prepared from human peripheral blood from a single donor, in RPMI1640 medium supplemented with 10% human serum, 2 mM glutamine and penicillin/streptomycin. Phorbol myristate acetate (PMA) (0.5 ng/ml final concentration) and ionomycin (500 ng/ml final concentration) were added to these cells in supplemented RPMI1640 medium (as above) so that the final volume of the assay was 0.2 ml. […] The level of radioactivity incorporated by the cells was then determined and this is a measure of proliferation.
(In general: Dividing cells build labelled thymidine or BrdU into new DNA.)

For the compound `CC(C)n1c(=O)n(C)c(=O)c2c(C(=O)N3C[C@H](O)CO3)c(Cc3ccnc4ccccc34)sc21` [Example 20, (S) 5-{4-Hydroxyisoxazolidin-2-ylcarbonyl}-3-methyl-1-(isopropyl)-6-(4-quinolinylmethyl)thieno[2,3-d]pyrimidine-2,4(1H,3H)-dione], the IC50 is 5 nM.
